Laboratory results as given in US4870071A, “Prophylactic and therapeutic agnet for hepatic disorder” (Senju Pharmaceutical Co., Ltd., priority 1986, dated 1989).
Entries after “also recorded” stand apart in the source; their conditions may differ.

How the values were obtained:
[1] = tested on: CCl4-induced chronic hepatic disorder; experiment: Effect on CCl4-induced chronic hepatic disorder; format: in vivo, Male SD rats; conditions: for Pathological examination of the liver: H.E. staining, compared with control group
Method: Male SD rats were used in two groups, namely the control group and the CGCa group.
CCl4 was dissolved in olive oil in a concentration of 10% (w/v) and the solution was intraperitoneally administered in a dose of 5 ml/kg twice a week (Tuesday and Friday) for 10 weeks. Three days after the last CCl4 administration, blood samples were collected in each group for the assay of s-GOT, s-GPT, etc. Assay of liver hydroxyproline (HyP) and pathological examination of the liver following H.E. staining were also performed.

[2] = Acute oral toxicity test in mice (LD50); conditions: mouse, in vivo
[3] = tested on: galactosamine-induced hepatopathy; experiment: Effect on galactosamine-induced hepatopathy; format: in vivo, Male Wistar rats
Method: Galactosamine-induced hepatopathy is caused by inhibition of glycoprotein and protein metabolisms and has been used as an experimental model since it pathologically resembles viral hepatitis.
(§1) Male Wistar rats were used after fasting.
Fifteen (15) hours later, a second administration was performed in the same dose. […] Twenty-four (24) hours thereafter, blood samples were collected for the assay of s-GOT and s-GPT.

[4] = tested on: alcohol-induced hepatopathy; experiment: Effect on alcohol-induced hepatopathy (liver TG); format: in vivo, Male Wistar rats
Method: as §1
After 13 hours, 20% alcohol was orally administered at 5 g/kg. After 8 hours, the liver was removed and TG was determined by the acetylacetone method.

mice = experiment: Acute toxicity in mice, intravenous injection (LD50)
Description: Acute toxicity of the compounds according
to the invention in terms of LD50
Referring to the above table, the injection No. 1 was adjusted to pH 7.0-7.2 by adding sodium carbonate after dissolution of the sample.

[5] = Solubility of the calcium salt; format: physicochemical
[6] = tested on: CCl4-induced acute hepatic disorder; experiment: Effect on CCl4-induced acute hepatic disorder, (A)-2 (dose); format: in vivo, Male Wistar rats; conditions: for s-GOT / s-GPT: 10 hours before CCl4
Method: Ten hours later, CCl4 was intraperitoneally administered in a dose of 0.08 ml/kg. About 18 hours thereafter, the blood was sampled for the assay of s-GOT and s-GPT.

[7] = tested on: CCl4-induced acute hepatic disorder; experiment: Effect on CCl4-induced acute hepatic disorder, (A)-1 (time of pre-administration); format: in vivo, Wistar-strain male rats
Method: Wistar-strain male rats were used after fasting.
The hepatic disorder inducer CCl4 was intraperitoneally administered to each group in a dose of 0.08 ml/kg (diluted with olive oil so as to give a dose volume of 5 ml/kg) and, after about 18 hours, the blood was sampled for the assay of s-GOT and s-GPT.

[8] = tested on: acetaminophen-induced hepatic disorder; experiment: Effect on acetaminophen-induced hepatic disorder; format: in vivo, Male SD rats; conditions: 500 mg/kg oral, 1 hour before acetaminophen, 24 hours
Method: In this experiment, cysteineglucuronolactone and cysteineglucuronic acid salts (CG groups) were tested for their effects on acetaminophen-induced hepatic disorder in terms of their ability to suppress elevations in serum GOT, GPT, LDH and ALP. […] In the control and normal groups, 10 ml/kg of 0.5% CMC was orally administered and, in the CG groups, 500 mg/10 ml/kg of the respective compound was orally administered. An hour later, 400 mg/15 ml/kg of acetaminophen was intraperitoneally administered to the control and CG groups while 15 ml/kg of physiological saline was intraperitoneally administered to the normal group.

[9] = Transfer to plasma and plasma level duration after oral administration; format: in vivo, rabbits; conditions: for Transfer to bloodstream on oral administration: rabbit, in vivo
Method: The sera separated from the blood samples were deproteinized with trichloroacetic acid and, then, free cysteine in the sera as well as cysteine resulting from hydrolysis following heating was determined by fluorescence labeling and high performance liquid chromatography (HPLC).

[10] = tested on: carbon tetrachloride-induced hepatic disorder; experiment: Further experiments with CGL and CGNa: suppression of s-GOT and s-GPT after CCl4; format: in vivo, rats; conditions: 2.0 g/kg oral 1 hour earlier than CCl4 0.08 ml/kg i.p.; versus control group
Method: In further experiments in which cysteineglucuronolactone (CGL) and sodium cysteineglucuronate (CGNa) were respectively administered orally in a dose of 2.0 g/kg 1 hour earlier than intraperitoneal administration of 0.08 ml/kg of CCl4, the percent suppressions of s-GOT and s-GPT obtained as compared with the control group were as shown below.

hepatic disorder models = experiment: Hepatic disorder models, overall statement; format: in vivo; conditions: oral
[11] = 5% CGCa in diet, CCl4 twice a week for 10 weeks
[12] = 2.0 g/kg oral twice, galactosamine hydrochloride 400 mg/kg i.p., 24 hours
[13] = CGCa I group, 2.0 g/kg oral 12 hours before CCl4
[14] = CGCa II group, 2.0 g/kg oral 10 hours before CCl4
[15] = CGCa III group, 2.0 g/kg oral 8 hours before CCl4
[16] = CGCa IV group, 2.0 g/kg oral 6 hours before CCl4
[17] = CGCa V group, 2.0 g/kg oral 4 hours before CCl4

## O=C(O)C1CSC(C(O)C(O)C(O)C(O)C(=O)O)N1 (stereo not shown) [CGCa, Calcium cysteineglucuronate]
[1]; 0.05<p<0.10
  elevation of LDH (in words): tended to suppress
[1]; [11]
  ALP: 59.5 ± 23.83 King-Armstrong units
  Albumin: 3.4 ± 0.28 g/dL
  Cholinesterase: 0.014 ± 5.16 × 10^-3 ΔpH
  LDH: 491.7 ± 312.24 Wroblewski units
  Liver HyP: 371.6 ± 93.05 µg/g
  Serum iron: 215.0 ± 39.01 µg/dL
  Total bilirubin: 0.35 ± 0.108 mg/dL
  s-GOT: 358.9 ± 157.13 Karmen units
  s-GPT: 130.3 ± 53.56 Karmen units
  γ-GTP: 3.0 ± 1.50 mU/ml
[1]
  Pathological examination of the liver: although vacuolar degeneration was found, the original lobular structure of the liver was preserved without evidence of hepatocirrhosis, such as formation of pseudolobules; also recorded: Necrosis was scattered and cellular infiltration was slight as compared with the control group; also recorded: effective against the damage and fibrosis of hepatocytes
[1]; listed as CGC2
  Pathological examination of the liver: suppression of the fibrosis
[1]; liver, p<0.05
  elevation of hydroxyproline (HyP) (in words): significantly suppressed
[1]; p<0.05
  elevation of s-GOT (in words): significantly suppressed
  elevation of s-GPT (in words): significantly suppressed
[2]
  LD50: 7500 mg/kg
[3]; [12]
  s-GOT: 1643.1 ± 480.43 Karmen units
  s-GPT: 702.3 ± 223.08 Karmen units
[3]; oral, p<0.05
  elevation of s-GOT (in words): inhibited the elevations significantly (p<0.05)
  elevation of s-GPT (in words): inhibited the elevations significantly (p<0.05)
[4]; 2.0 g/kg oral 13 hours before 20% alcohol 5 g/kg, 8 hours after alcohol
  Liver TG: 4.4 ± 1.29 mg/g liver
[4]; oral, p<0.05
  increase of liver TG level due to alcohol (in words): significantly suppressed this increase (p<0.05)
mice
  Acute toxicity (in words): somewhat increased toxicity
[5]
  Solubility (in words): low solubility
[6]; 1.43 g/kg
  increase in s-GOT: tendency toward suppression
[6]; 1.43 g/kg, p<0.05
  increase of s-GPT (in words): significantly suppressed
[6]; 2.0 g/kg, p<0.05
  increase in s-GOT: significantly suppressed (p<0.05)
  increase in s-GPT (in words): significantly suppressed (p<0.05)
[6]; CGCa I group, 1.02 g/kg oral
  s-GOT: 1755.6 ± 784.49 Karmen units
  s-GPT: 427.2 ± 131.72 Karmen units
[6]; CGCa II group, 1.43 g/kg oral
  s-GOT: 1192.0 ± 264.07 Karmen units
  s-GPT: 309.5 ± 86.25 Karmen units
[6]; CGCa III group, 2.0 g/kg oral
  s-GOT: 1106.2 ± 224.53 Karmen units
  s-GPT: 299.9 ± 79.85 Karmen units
[7]; 10 or 12 hours earlier administration, p<0.05
  CCl4-induced increase of s-GPT (in words): significantly suppressed
[7]; [13]
  s-GOT: 1134.9 ± 361.57 Karmen units
  s-GPT: 310.5 ± 68.08 Karmen units
[7]; [14]
  s-GOT: 921.6 ± 198.34 Karmen units
  s-GPT: 308.5 ± 42.30 Karmen units
[7]; [15]
  s-GOT: 929.0 ± 201.14 Karmen units
  s-GPT: 328.2 ± 105.72 Karmen units
[7]; [16]
  s-GOT: 1493.3 ± 480.60 Karmen units
  s-GPT: 502.4 ± 210.66 Karmen units
[7]; [17]
  s-GOT: 1453.0 ± 515.58 Karmen units
  s-GPT: 516.3 ± 166.50 Karmen units
[7]; administered 8 to 10 hours earlier than CCl4, p<0.05
  CCl4-induced increase of s-GOT (in words): significantly suppressed (p<0.05)
[8]
  ALP: 11.4 ± 1.52 BL (BesseyLowry) units
  LDH: 705.1 ± 283.3 Wroblewski units
  s-GOT: 284.2 ± 136.3 Karmen units
  s-GPT: 121.7 ± 33.7 Karmen units
[9]; rabbits, oral 500 mg/kg
  Lapse of time until free cysteine content in plasma began to increase: 2 h
[9]; rabbits, oral 500 mg/kg, 24 hours
  Free cysteine content in plasma after 24 hours: at a normal value
[9]; rabbits, oral, versus equimolar amount of cysteine
  Duration of increased blood cysteine levels compared with equimolar cysteine: increased blood cysteine levels can be maintained for a prolonged period

## O=C(O)C1CSC(C(O)C2OC(=O)C(O)C2O)N1 (stereo not shown) [CGL, Cysteineglucuronolactone]
[10]
  Suppression of s-GOT: 35.0%
  Suppression of s-GPT: 34.8%
[8]
  ALP: 10.7 ± 1.04 BL (BesseyLowry) units
  LDH: 540.3 ± 238.1 Wroblewski units
  s-GOT: 185.0 ± 83.3 Karmen units
  s-GPT: 85.5 ± 22.7 Karmen units
[9]
  Transfer to bloodstream on oral administration: translocated into the bloodstream
Hepatic disorder models
  depression of GOT (in words): significant depressions
  depression of GPT (in words): significant depressions

## O=C(O)C1CSC(C(O)C(O)C(O)C(O)C(=O)O)N1 (stereo not shown) [CGMg, Magnesium cysteineglucuronate]
[8]
  ALP: 12.8 ± 1.20 BL (BesseyLowry) units
  LDH: 857.5 ± 296.1 Wroblewski units
  s-GOT: 386.3 ± 88.1 Karmen units
  s-GPT: 141.9 ± 27.5 Karmen units

## O=C(O)C1CSC(C(O)C(O)C(O)C(O)C(=O)O)N1 (stereo not shown) [CGNa, Sodium cysteineglucuronate]
[10]
  Suppression of s-GOT: 37.2%
  Suppression of s-GPT: 39.3%
[8]
  ALP: 10.4 ± 1.22 BL (BesseyLowry) units
  LDH: 557.2 ± 240.7 Wroblewski units
  s-GOT: 180.1 ± 63.0 Karmen units
  s-GPT: 78.4 ± 13.7 Karmen units

## O=C(O)C1CSC(C(O)C(O)C(O)C(O)C(=O)O)N1 (stereo not shown) [cysteineglucuronic acid, Cysteineglucuronic acid]
[9]
  Transfer to bloodstream on oral administration: translocated into the bloodstream
Hepatic disorder models
  depression of GOT (in words): significant depressions
  depression of GPT (in words): significant depressions
